Data taken from patent US20230263768A1, “WATER-SOLUBLE ARTESUNATE-BASED THERAPY FOR CORONAVIRUS INFECTION” (priority 2020, published 2023).

Tests used:
[1] = Solubility of artesunate formulations in simulated gastric fluid; assay type: physicochemical; settings: 0.5 g in 10 mL SGF pH 1.2, 36.5° C., 100 rev/min, after 30 minutes
Method: An amount of 0.5 g of different artesunate formulations (untreated artesunate, sodium Artesunate, Artesunate/SG complex and WSA powders) are dispersed in 10 mL of simulated gastric fluid (SGF, pH 1.2). All solutions are incubated at 36.5° C. under mild shaking with (100 rev/min) in a G24 Environmental Incubator Shaker (New Brunswick Scientific Co., NJ, USA).

[2] = tested on: SARS-CoV-2 (isolate USA-WA1-2020); assay: SARS-CoV-2 replication in VERO E6 cells, viral RNA by qPCR (Ct) after 48 h; assay type: cell-based
[3] = Example 4, 160 µg/mL, 48 h, VERO E6

Compound	appearance of the solution / precipitation in SGF [1]	Cycle Threshold Value (quantity of viral RNA) [2, 3]	antiviral activity (in words) [2, 3]	Cycle Threshold Value (quantity of viral RNA) ([2]; Example 4, 160 µg/mL, 48 h, VERO E6, listed as sodium artesunate)	antiviral activity (in words) ([2]; Example 6, dose response and combination with Telmisartan)
C[C@H]1[C@H](OC(=O)CCC(=O)[O-])O[C@@H]2O[C@@]3(C)CC[C@H]4[C@H](C)CC[C@@H]1[C@@]24OO3.[Na+] [Sodium Artesunate]	cloudy, but no evident precipitation is observed	22.5	Low antiviral activity	about 23	
CCCc1nc2c(C)cc(-c3nc4ccccc4n3C)cc2n1Cc1ccc(-c2ccccc2C(=O)O)cc1 [Telmisartan]					No activity antiviral is observed
C[C@@H]1CCC2[C@@H](C)[C@H](OC(=O)CCC(=O)O)OC3O[C@]4(C)CCC1[C@]32OO4 (stereo partly drawn) [untreated Artesunate, Artesunate]	milky appearance, with an important precipitation at the bottom of vial				
